Where two headings read alike, the source gives them in different places.
How the values were obtained:
HSA Sudlow site I = biological target: T1, HSA Sudlow site I (Homo sapiens, UniProt P02768); test: Displacement chromatography (zonal elution) with warfarin as competitor; format: binding; conditions: k decreases with rising warfarin, P < 0.05; 1/k vs competitor linear, positive slope
T1 construct: purchased Chiral Technologies Europe (Daicel Chemical Industries, Ltd., Osaka, Japan)

[1] = biological target: human serum albumin (HSA) (Homo sapiens, UniProt P02768); conditions: for k (retention factor): Chiralpak HSA column, racemates
Chain of human serum albumin (HSA) (P02768 25-609): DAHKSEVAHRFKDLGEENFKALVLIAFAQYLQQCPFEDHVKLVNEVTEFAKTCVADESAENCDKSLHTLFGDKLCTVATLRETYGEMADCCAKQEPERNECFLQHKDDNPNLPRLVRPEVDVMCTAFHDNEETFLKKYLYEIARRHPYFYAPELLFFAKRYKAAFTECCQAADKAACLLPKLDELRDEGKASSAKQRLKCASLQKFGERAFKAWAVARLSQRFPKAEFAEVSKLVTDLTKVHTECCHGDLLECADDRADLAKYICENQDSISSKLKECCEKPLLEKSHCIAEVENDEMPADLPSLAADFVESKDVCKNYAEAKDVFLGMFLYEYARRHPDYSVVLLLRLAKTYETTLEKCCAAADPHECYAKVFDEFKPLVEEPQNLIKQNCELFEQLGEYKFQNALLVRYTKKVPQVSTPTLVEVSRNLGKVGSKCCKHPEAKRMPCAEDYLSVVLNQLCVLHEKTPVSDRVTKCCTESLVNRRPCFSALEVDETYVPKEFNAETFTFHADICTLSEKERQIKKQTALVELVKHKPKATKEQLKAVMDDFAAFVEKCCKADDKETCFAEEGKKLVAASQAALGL

HSA [2] = conditions: equilibrium and dynamic dialysis; cited from earlier work
HSA [3] = conditions: value in brackets; cited from earlier work
[4] = test system: differentiated SH-SY5Y cells; conditions: cited from earlier work
HSA [5] = test system: HSA; set-up: method as in PMID 24666938; conditions: HPAC, immobilized HSA column; cited from earlier work
HSA [6] = conditions: cited from earlier work
bovine serum albumin = conditions: spectroscopic technology; cited from earlier work
human plasma proteins = conditions: racemate incubated with plasma, ultrafiltration; cited from earlier work
HSA [7] = conditions: literature-reported; cited from earlier work
[8] = 100% potassium phosphate buffer 67 mM pH 7.0, 25 °C
[9] = from k by Eq. 4, 100% potassium phosphate buffer 67 mM pH 7.0, 25 °C

T1 sequence (P02768 25-609): as above

COc1ccc2c3c1O[C@H]1[C@@H](O)C=C[C@H]4[C@@H](C2)N(C)CC[C@@]341 [COD, codeine]
Competition with warfarin (site I) (HSA Sudlow site I): competition was also observed for both sites I and II | k (retention factor) [1, 8]: 1.89 | Bound fraction (%b) to HSA [1, 9]: 65% | Binding percentage to HSA (HSA [2]): about 29%

CN(C)CCCN1c2ccccc2Sc2ccc(Cl)cc21 [Chlorpromazine, chlorpromazine]
Bound fraction (%b) to HSA, experimental, controls ([1]; human, pH 7): 98.1% | Bound fraction (%b) to HSA, literature value (HSA [3]): > 90%

CNC(C)CN1c2ccccc2Sc2ccccc21 (stereo not shown) [DMPMZ, N-desmonomethyl promethazine]
Competition with warfarin (site I) (HSA Sudlow site I): also compete with warfarin and (S)-ibuprofen | k (retention factor) [1, 8]: 16.34 | Cytotoxicity [4]: even more cytotoxic than PMZ

Cc1ncc([N+](=O)[O-])n1CCO [Metronidazole, metronidazole]
Bound fraction (%b) to HSA, experimental, controls ([1]; human, pH 7): 19.8% | Bound fraction (%b) to HSA, literature value (HSA [3]): 20.0%

CC(CN1c2ccccc2Sc2ccccc21)N(C)C (stereo not shown) [PMZ, promethazine]
Competition with warfarin (site I) (HSA Sudlow site I): competes with warfarin | Bound fraction (%b) to HSA [1, 9]: 98% | Association constant of binding to HSA (HSA [5]): 1.24 ± 0.14 × 10^4 M^−1 | Association constant of binding to HSA (HSA [6]; fluorescence and adsorption spectroscopy): 1.57 ± 0.20 × 10^4 M^−1 | Binding site on HSA (HSA [6]; fluorescence spectroscopy): located in site I (subdomain IIA) | Binding constant to bovine serum albumin (bovine serum albumin): 1.40 ± 0.04 × 10^4 M^−1 | Enantioselective binding to human plasma proteins (human plasma proteins): evidence of the enantioselective binding

CC(CN1c2ccccc2[S+]([O-])c2ccccc21)N(C)C (stereo not shown) [PMZSO, promethazine sulphoxide]
Competition with warfarin (site I) (HSA Sudlow site I): also compete with warfarin and (S)-ibuprofen | k (retention factor) [1, 8]: 3.99 | Bound fraction (%b) to HSA ([1]; human, 50 µg/mL, pH 7): 80%

CC(=O)CC(c1ccccc1)c1c(O)c2ccccc2oc1=O (stereo not shown) [Warfarin, warfarin]
Affinity constant for HSA (HSA [7]): 330000 M⁻¹

Source: publication PMC11294390 (Analytical and Bioanalytical Chemistry, 2024)
